Measurements taken from patent US12048691B2 (SPERO THERAPEUTICS, INC., priority 2020, dated 2024).
In brackets after ≈: the same amount, converted by molar mass. Like-named read-outs stand apart in the source and are kept apart here.

Tests used:
Type in all cases: cell-based
[1] = tested on: Methicillin-susceptible Staphylococcus epidermidis (MSSE); assay: Broth microdilution against Gram-positive clinical isolates; details: Staphylococcus epidermidis, 31 isolates
Procedure: (§1) The purpose of this study was to investigate the in vitro activity of tebipenem and comparator agents, including ertapenem and meropenem, against a recent collection of Gram-positive isolates associated with clinical infections. The susceptibility of 580 Gram-positive organisms were tested, including: Methicillin-susceptible Staphylococcus aureus (MSSA, 489 isolates), Methicillin-susceptible Staphylococcus epidermidis (MSSE, 31), other methicillin-susceptible coagulase-negative staphylococci (MSCONS, 29), and Vancomycin-susceptible Enterococcus faecalis (31). Bacterial species were identified by JMI Laboratories using standard microbiology methods and matrix-assisted laser desorption ionization-time of flight mass spectrometry (Bruker Daltonics, Bremen, Germany). The isolates were collected in 2018 and 2019 as part of the SENTRY surveillance program and selected to be representative of these species with 45.0% from the United States, 44.3% from Europe, 5.3% from the Asia-Pacific region, and 5.3% from Latin America. Isolates are primarily from pneumonia in hospitalized patients (498 isolates; 85.9%), urinary tract infections (42 isolates; 7.2%), and bloodstream infections (38 isolates; 6.6%). Isolates were tested in a central laboratory (JMI Laboratories) for antimicrobial susceptibility using the CLSI M07 (2018) reference broth microdilution method. JMI Laboratories produced frozen-form 96-well panels and used cation-adjusted Mueller-Hinton broth (CA-MHB) as the testing medium. All categorical interpretations used CLSI M100 (2021) and EUCAST v10.0 (2021) breakpoint criteria, where published. Quality control organisms include Escherichia coli ATCC 25922, Escherichia coli ATCC 35218, Enterococcus faecalis ATCC 29212, Pseudomonas aeruginosa ATCC 27853, and Staphylococcus aureus ATCC 29213 were tested concurrently with clinical isolates.

[2] = tested on: Vancomycin-susceptible Enterococcus faecalis; assay: as above; details: Enterococcus faecalis; E. faecalis, 31 isolates
Procedure: as §1

E. coli = assay: Broth microdilution MIC against characterized subsets of UTI E. coli (2018-2020); details: for MIC50 / MIC90: Escherichia coli; for MIC50: read-out: MIC50; for MIC90: read-out: MIC90
Text: Isolates were collected from medical centers in all 9 US Census Regions and tested by broth microdilution. MIC interpretation was based on CLSI. Isolates that met MIC criteria were subjected to genome sequencing, followed by screening of extended-spectrum b-lactamase (ESBL) genes and epidemiology typing (MLST).

**Q.** How did the MIC90 [1] turn out when `C[C@@H](O)[C@H]1C(=O)N2C(C(=O)O)=C(S[C@@H]3CN[C@H](C(=O)Nc4cccc(C(=O)O)c4)C3)[C@H](C)[C@H]12` [Ertapenem, ertapenem] was run?
**A.** 0.5 µg/mL (≈ 1.05 µM)

**Q.** And the MIC90 [2]?
**A.** > 8 µg/mL

**Q.** And the “% susceptible by CLSI M100 criteria” value (E. coli; CMYb (33))?
**A.** 90.6%

**Q.** And the “% susceptible by CLSI M100 criteria” value (E. coli; CTX-M a)?
**A.** 98.9%

**Q.** What about the “% susceptible by CLSI M100 criteria” value (E. coli; DHA(7)) of the same compound?
**A.** 85.7%

**Q.** What about the “% susceptible by CLSI M100 criteria” value (E. coli; ESBL (360)) of the same compound?
**A.** 97.4%

**Q.** What about the MIC50 (E. coli; CMYb (33)) of the same compound?
**A.** 0.06 µg/mL (≈ 0.126 µM)

**Q.** And the MIC50 (E. coli; CTX-M a)?
**A.** 0.03 µg/mL (≈ 0.0631 µM)

**Q.** What about the MIC90 (E. coli; CTX-M a) of the same compound?
**A.** 0.12 µg/mL (≈ 0.252 µM)

**Q.** What about the MIC50 (E. coli; DHA(7)) of the same compound?
**A.** 0.06 µg/mL (≈ 0.126 µM)

**Q.** And the MIC50 (E. coli; ESBL (360))?
**A.** 0.03 µg/mL (≈ 0.0631 µM)

**Q.** What about the MIC90 (E. coli; ESBL (360)) of the same compound?
**A.** 0.12 µg/mL (≈ 0.252 µM)

**Q.** What about the MIC50 (E. coli; Non-ESBL (2035)) of the same compound?
**A.** ≤ 0.008 µg/mL

**Q.** And the MIC90 (E. coli; Non-ESBL (2035))?
**A.** 0.015 µg/mL (≈ 0.0315 µM)

**Q.** And the MIC50 (E. coli; Non-ST131 (203))?
**A.** 0.015 µg/mL (≈ 0.0315 µM)

**Q.** What about the MIC90 (E. coli; ST131 (222)) of the same compound?
**A.** 0.06 µg/mL (≈ 0.126 µM)

**Q.** What about the “% susceptible by CLSI M100 criteria” value (E. coli; Non-ESBL (2035)) of the same compound?
**A.** 100%

**Q.** What about the “% susceptible by CLSI M100 criteria” value (E. coli; Non-ST131 (203)) of the same compound?
**A.** 97.0%

**Q.** And the “% susceptible by CLSI M100 criteria” value (E. coli; ST131 (222))?
**A.** 99.1%

**Q.** And the “% susceptible” value (E. coli; against the various subsets)?
**A.** ≥ 97.0%

**Q.** And the susceptibility rates (E. coli; isolates carrying plasmid AmpC)?
**A.** 85.7-90.6%
